Patent US10017542B2, “Antimicrobial peptides and methods of use thereof” (priority 2015, dated 2018)
Where a SMILES comes first, the peptide text is derived from it. [ ]: non-standard residue; d: D form. Orn = NCCC[C@H](N)C(=O)O

Experiments:
B. thailandensis = assay: microbe, parasite or virus in culture; settings: Burkholderia thailandensis, 3 h
Pseudomonas Xen5 = assay: Antibacterial activity, microtiter dilution method; type: cell-based; settings: 24 hours, 37 degrees
E. coli = settings: 24 h
Description: (§1) Measurement of antimicrobial and anti-fungal activity was determined by a standard micrometer dilution method. Briefly, cells were grown overnight in media specified for each strain, and were diluted in the same media. Serial dilutions of the peptides were added to microtiter plates in a volume of 50 ul, followed by the addition of 50 ul of bacteria or fungi, 5×10^5 CFU/ml. Plates were incubated at 37 degrees for 24 hours and the Minimum Inhibitory Concentrations (MICs) were determined as the lowest peptide concentration that inhibited 50% of bacterial growth.

[1] = system: bacterial isolates of Table 7 (A. baumanii, E. coli, E. cloaca, Pseudomonas, Staphylococcus)
Description: (§2) Briefly, cells were grown overnight in media specified for each strain, and were diluted in the same media. Serial dilutions of the peptides were added to microtiter plates in a volume of 50 ul, followed by the addition of 50 ul of bacteria or fungi, 5×10^5 CFU/ml. Plates were incubated at 37 degrees for 24 hours and the Minimum Inhibitory Concentrations (MICs) were determined as the lowest peptide concentration that inhibited 50% of bacterial growth.

A. baumanii = settings: 24 h
Description: as §2

E. cloaca = settings: 24 h
Description: as §1

[2] = system: Actinobacillus actinomycetemcomitans strain A7154 (A.a.); assay: In vitro bactericidal activity screening, endpoint titration; settings: last concentration giving greater than two-logs reduction in CFU vs. saline control
[3] = system: Pseudomonas aeruginosa strain (P.a.); assay: as above; settings: last concentration giving greater than two-logs reduction in CFU vs. saline control
[4] = system: Escherichia coli strain (E.c.); assay: as above; settings: last concentration giving greater than two-logs reduction in CFU vs. saline control
[5] = system: Burkholderia cepacia strain Toronto (B.c.); assay: as above; settings: last concentration giving greater than two-logs reduction in CFU vs. saline control, 10^6 CFU/ml, 37° C.
[6] = system: all bacteria tested in Table 9; assay: In vitro bactericidal activity screening, average across all bacteria; type: cell-based; settings: average value across all bacteria
[7] = system: Fusobacterium nucleatum strain 1594 (F.n.); assay: In vitro bactericidal activity screening, endpoint titration; settings: last concentration giving greater than two-logs reduction in CFU vs. saline control

Compound | EC50 (B. thailandensis) [µM] | IC50 (Pseudomonas Xen5) [µM] | IC50 (E. coli) [µM] | IC50 [1] [µM] | IC50 (A. baumanii) [µM] | IC50 (E. cloaca) [µM] | Two-log Reduction Concentration [2] [μM] | Two-log Reduction Concentration [3] [μM] | Two-log Reduction Concentration [4] [μM] | Two-log Reduction Concentration [5] [μM] | Two-log Reduction Concentration Ave. [6] [μM] | Two-log Reduction Concentration [7] [μM]
CC(C)(O/N=C(\C(=O)N[C@@H]1C(=O)N2C(C(=O)[O-])=C(C[n+]3ccccc3)CS[C@H]12)c1csc(N)n1)C(=O)O [Ceftazidime] | 39.1 | – | – | – | – | – | – | – | – | – | – | –
CC[C@H](C)[C@H](NC(=O)[C@H](CCCNC(=N)N)NC(=O)[C@H](C)NC(=O)[C@H](CC(C)C)NC(=O)[C@@H](N)CCCNC(=N)N)C(=O)N[C@H](C(=O)NCC(=O)NCC(=O)N[C@@H](Cc1ccccc1)C(=O)N[C@@H](C)C(=O)N[C@@H](CCCN)C(=O)N[C@@H](CCCN)C(=O)N[C@@H](Cc1ccccc1)C(=O)N[C@@H](C)C(=O)N[C@@H](CCCN)C(=O)N[C@@H](CCCN)C(=O)N[C@@H](Cc1ccccc1)C(=O)N[C@@H](CCCN)C(=O)N[C@@H](CCCN)C(=O)N[C@@H](Cc1ccccc1)C(=O)N[C@@H](C)C(=O)N[C@@H](CCCN)C(=O)N[C@@H](CCCN)C(=O)N[C@@H](Cc1ccccc1)C(=O)N[C@@H](C)C(=O)N[C@@H](CCCN)C(=O)N[C@@H](Cc1ccccc1)C(=O)N[C@@H](C)C(=O)N[C@@H](Cc1ccccc1)C(=O)N[C@@H](C)C(=O)N[C@@H](Cc1ccccc1)C(=O)O)C(C)C [RP500, RLARIVGGFAOOFAOOFOOFAOOFAOFAFAF] (H-RLARIVGGFA[Orn][Orn]FA[Orn][Orn]F[Orn][Orn]FA[Orn][Orn]FA[Orn]FAFAF-OH; N-terminus and C-terminus assumed) | – | 0.5 | 3.8 | 5.3 | 7.6 | 7.6 | – | – | – | – | – | –
FAFAFKAFKKAFKKFKKAFKKAFGPGRFAKKFAKKFKKFAKKFAKFAFAF [RP-433] | – | – | – | – | – | – | 0.10 | 0.90 | 0.63 | 0.12 | 0.46 | 1.25
FARKFLKKFKRFAKKFVRFAFAF [SEQ ID NO: 6] | – | – | – | – | – | – | 0.40 | – | 0.63 | 1.25 | 1.67 | 3.75
